These results are taken from PubChem BioAssay AID192 (DTP/NCI, 2004).

Values joined by “and” are separate entries in the source; they are usually repeats but may differ in a detail not shown here. Equal entries are not always repeated. Toxic doses and inconclusive results are not listed.

For this experiment, the system named is BDF1 mice, B16 melanoma ip, median survival T/C. In words: NCI In Vivo Anticancer Drug Screen. Data for tumor model B16 Melanoma (intraperitoneal) in B6D2F1 (BDF1) mice. The conditions noted are these: endpoint: median survival time, higher = longer survival. In short, it runs like this: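 In this screen, activity was judged from survival or tumor size in treated versus vehicle-treated tumor-bearing mice, reported as T/C.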

[1] abbreviates: dose: 3.12 mg/kg/injection, schedule: Q01DX009 (ip), vehicle: saline with Tween-80.
The mark [2] stands for this setting: dose: 6.25 mg/kg/injection, schedule: Q01DX009 (ip), vehicle: saline with Tween-80.
[3] abbreviates: dose: 12.5 mg/kg/injection, schedule: Q01DX009 (ip), vehicle: saline with Tween-80.
The mark [4] stands for this setting: dose: 100.0 mg/kg/injection, schedule: Q01DX009 (ip), vehicle: Klucel (hydroxypropylcellulose) (HPC).
Setting [5] is: dose: 200.0 mg/kg/injection, schedule: Q01DX009 (ip), vehicle: Klucel (hydroxypropylcellulose) (HPC).
Where [6] appears, read: dose: 50.0 mg/kg/injection, schedule: Q01DX009 (ip), vehicle: Klucel (hydroxypropylcellulose) (HPC).
The mark [7] stands for this setting: dose: 25.0 mg/kg/injection, schedule: Q01DX009 (ip), vehicle: saline with Tween-80.
[8] abbreviates: dose: 25.0 mg/kg/injection, schedule: Q01DX009 (ip), vehicle: Klucel (hydroxypropylcellulose) (HPC).
Where [9] appears, read: dose: 400.0 mg/kg/injection, schedule: Q01DX009 (ip), vehicle: Klucel (hydroxypropylcellulose) (HPC).
The mark [10] stands for this setting: dose: 2.0 mg/kg/injection, schedule: Q01DX009 (ip), vehicle: saline with Tween-80.
Where [11] appears, read: dose: 8.0 mg/kg/injection, schedule: Q01DX009 (ip), vehicle: saline with Tween-80.
[12] abbreviates: dose: 100.0 mg/kg/injection, schedule: Q01DX009 (ip), vehicle: saline with Tween-80.

Consider `CCC(=O)c1ccc2c(c1)N(CCCN(C)C)c1ccccc1S2`, for which the T/C by setting is: under setting [1], 96 % of control; under setting [2], 86 % of control; under setting [3], 96 % of control.
For `Nc1ccccc1SC1CC(=O)N(c2ccccc2Cl)C1=O` (stereo not drawn), the T/C under setting [4] is 94 % of control and the T/C under setting [5] was 86 % of control.
For the compound `O=C(N/N=C/c1ccc(O)cc1O)c1cccnc1`, the T/C (dose: 25.0 mg/kg/injection, schedule: Q01DX009 (ip), vehicle: olive oil, sesame oil, peanut oil) is 86 % of control.
`CCCCOP(=O)(CCl)OCCCC`: the T/C was 97 % of control under setting [6] and 86 % of control under setting [4].
Consider `Cc1ccc(S(=O)(=O)Nc2c([N+](=O)[O-])cc([N+](=O)[O-])c3ccccc23)cc1`, for which the T/C is, setting by setting: under setting [2], 107 % of control; under setting [3], 100 % of control; under setting [7], 112 % of control.
Take `CC(C)NCC(O)COc1cccc2ccccc12` (stereo not drawn): the T/C was 99 % of control and 112 % of control (dose: 4.0 mg/kg/injection, schedule: Q01DX009 (ip), vehicle: Klucel (hydroxypropylcellulose) (HPC)); 101 % of control (dose: 8.0 mg/kg/injection, schedule: Q01DX009 (ip), vehicle: Klucel (hydroxypropylcellulose) (HPC)); 98 % of control and 108 % of control (dose: 16.0 mg/kg/injection, schedule: Q01DX009 (ip), vehicle: Klucel (hydroxypropylcellulose) (HPC)); 91 % of control and 95 % of control (dose: 32.0 mg/kg/injection, schedule: Q01DX009 (ip), vehicle: Klucel (hydroxypropylcellulose) (HPC)); 97 % of control and 101 % of control (dose: 64.0 mg/kg/injection, schedule: Q01DX009 (ip), vehicle: Klucel (hydroxypropylcellulose) (HPC)).
`CCN(CC)CCSC(=S)N1c2ccccc2Sc2ccccc21`: the T/C was 109 % of control (dose: 1.09 mg/kg/injection, schedule: Q01DX009 (ip), vehicle: Klucel (hydroxypropylcellulose) (HPC)); 105 % of control (dose: 2.18 mg/kg/injection, schedule: Q01DX009 (ip), vehicle: Klucel (hydroxypropylcellulose) (HPC)); 107 % of control (dose: 4.37 mg/kg/injection, schedule: Q01DX009 (ip), vehicle: Klucel (hydroxypropylcellulose) (HPC)); 111 % of control (dose: 8.75 mg/kg/injection, schedule: Q01DX009 (ip), vehicle: Klucel (hydroxypropylcellulose) (HPC)); 100 % of control (dose: 17.5 mg/kg/injection, schedule: Q01DX009 (ip), vehicle: Klucel (hydroxypropylcellulose) (HPC)).
On to `CN(C)c1ccc2c(SCC(=O)OCC(=O)[C@@]3(O)CC[C@H]4[C@@H]5CCC6=CC(=O)C=C[C@]6(C)[C@H]5C(=O)C[C@@]43C)c3ccc(N(C)C)cc3nc2c1`, for which the T/C runs as follows: under setting [8], 101 % of control; under setting [6], 96 % of control; under setting [4], 101 % of control; under setting [5], 113 % of control; under setting [9], 98 % of control.
As to `CCCCCCCCCCCCCCCCCC[N+](C)(C)c1nc(Cl)nc(Cl)n1`, the T/C (dose: 3.13 mg/kg/injection, schedule: Q01DX009 (ip), vehicle: other) is 98 % of control; the T/C (dose: 6.25 mg/kg/injection, schedule: Q01DX009 (ip), vehicle: other) is 100 % of control; the T/C (dose: 12.5 mg/kg/injection, schedule: Q01DX009 (ip), vehicle: other) was 99 % of control.
For `C=CCNC(=S)NCC=C`, the T/C under setting [4] is 97 % of control, the T/C under setting [5] is 92 % of control and the T/C under setting [9] was 102 % of control.
In the case of `COc1ccc(/C=C2\C(=O)OC(=O)\C2=C\c2ccc(OC)c(OC)c2)cc1OC`, the T/C is 98 % of control (dose: 12.5 mg/kg/injection, schedule: Q01DX009 (ip), vehicle: Klucel (hydroxypropylcellulose) (HPC)) and 90 % of control under setting [8].
Regarding `CCN(CC)CCOC(=O)C(c1ccccc1)C1CCCCC1` (stereo not drawn), the T/C runs as follows: (dose: 6.25 mg/kg/injection, schedule: Q01DX009 (ip), vehicle: saline) 99 % of control; (dose: 12.5 mg/kg/injection, schedule: Q01DX009 (ip), vehicle: saline) 108 % of control; (dose: 25.0 mg/kg/injection, schedule: Q01DX009 (ip), vehicle: saline) 108 % of control; (dose: 50.0 mg/kg/injection, schedule: Q01DX009 (ip), vehicle: saline) 118 % of control; (dose: 100.0 mg/kg/injection, schedule: Q01DX009 (ip), vehicle: saline) 110 % of control.
Regarding `C1CN1P1(N2CC2)=NP(N2CC2)(N2CC2)=NP(N2CC2)(N2CC2)=N1`, the T/C by setting is: (dose: 0.25 mg/kg/injection, schedule: Q02DX009 (ip), vehicle: saline with Tween-80) 87 % of control; (dose: 0.5 mg/kg/injection, schedule: Q01DX009 (ip), vehicle: saline with Tween-80) 108 % of control; (dose: 0.5 mg/kg/injection, schedule: Q02DX009 (ip), vehicle: saline with Tween-80) 101 % of control; (dose: 1.0 mg/kg/injection, schedule: Q01DX009 (ip), vehicle: saline with Tween-80) 124 % of control; (dose: 1.0 mg/kg/injection, schedule: Q02DX009 (ip), vehicle: saline with Tween-80) 87 % of control and 94 % of control; under setting [10], 123 % of control. In addition, the T/C (dose: 2.0 mg/kg/injection, schedule: Q02DX009 (ip), vehicle: saline with Tween-80) was 99 % of control and 122 % of control; the T/C under setting [11] was 170 % of control; the T/C (dose: 8.0 mg/kg/injection, schedule: Q02DX009 (ip), vehicle: saline with Tween-80) is 153 % of control.
As for `CC1([CH2][Hg][I])CS(=O)(=O)CC(C)([CH2][Hg][I])O1` (stereo not drawn), the T/C is 97 % of control (dose: 1.25 mg/kg/injection, schedule: Q01DX009 (ip), vehicle: saline sonified); 100 % of control under setting [10]; 92 % of control (dose: 2.5 mg/kg/injection, schedule: Q01DX009 (ip), vehicle: saline sonified); 102 % of control (dose: 4.0 mg/kg/injection, schedule: Q01DX009 (ip), vehicle: saline sonified); 94 % of control (dose: 4.0 mg/kg/injection, schedule: Q01DX009 (ip), vehicle: saline with Tween-80); 95 % of control (dose: 8.0 mg/kg/injection, schedule: Q01DX009 (ip), vehicle: saline sonified). Also, the T/C reads like this: under setting [11], 100 % of control; (dose: 16.0 mg/kg/injection, schedule: Q01DX009 (ip), vehicle: saline sonified) 90 % of control; (dose: 16.0 mg/kg/injection, schedule: Q01DX009 (ip), vehicle: saline with Tween-80) 100 % of control; (dose: 32.0 mg/kg/injection, schedule: Q01DX009 (ip), vehicle: saline with Tween-80) 94 % of control.
On to `Cc1ccc(N)c(Br)c1`, for which the T/C is, setting by setting: under setting [7], 88 % of control; (dose: 50.0 mg/kg/injection, schedule: Q01DX009 (ip), vehicle: saline with Tween-80) 88 % of control; under setting [12], 91 % of control.
Consider `CCC1CCCCC1=O` (stereo not drawn), for which the T/C (dose: 44.0 mg/kg/injection, schedule: Q01DX009 (ip), vehicle: saline with Tween-80) was 97 % of control; the T/C (dose: 67.0 mg/kg/injection, schedule: Q01DX009 (ip), vehicle: saline with Tween-80) was 95 % of control; the T/C under setting [12] is 100 % of control; the T/C (dose: 150.0 mg/kg/injection, schedule: Q01DX009 (ip), vehicle: saline with Tween-80) is 102 % of control.
For the compound `C[CH2][Sn]1([CH2]C)[O]OC(c2ccccc2)[O]1` (stereo not drawn), the T/C by setting is: (dose: 0.78 mg/kg/injection, schedule: Q01DX009 (ip), vehicle: saline with Tween-80) 106 % of control; (dose: 1.56 mg/kg/injection, schedule: Q01DX009 (ip), vehicle: saline with Tween-80) 105 % of control and 111 % of control; under setting [1], 109 % of control and 112 % of control; under setting [2], 113 % of control and 116 % of control; under setting [3], 101 % of control and 117 % of control.
On to `CC(=O)Nc1ccc2c(c1)C[N+](C)(C1CCCCC1)CO2` (stereo not drawn), for which the T/C was 106 % of control under setting [3] and 113 % of control under setting [7].
As for `COc1cc(C(=O)Nc2ccc(N(C)C)cc2)cc(OC)c1OC`, the T/C was 119 % of control (dose: 12.5 mg/kg/injection, schedule: Q04DX003 (ip), vehicle: saline); 116 % of control (dose: 50.0 mg/kg/injection, schedule: Q04DX003 (ip), vehicle: saline); 108 % of control (dose: 200.0 mg/kg/injection, schedule: Q04DX003 (ip), vehicle: saline).
Regarding `CC(C)CC(NC(=O)C(O)C(N)Cc1ccccc1)C(=O)O` (stereo not drawn), the T/C (dose: 0.05 mg/kg/injection, schedule: Q01DX009 (oral), vehicle: saline) was 97 % of control; the T/C (dose: 0.5 mg/kg/injection, schedule: Q01DX009 (oral), vehicle: saline) is 97 % of control; the T/C (dose: 5.0 mg/kg/injection, schedule: Q01DX009 (oral), vehicle: saline) is 96 % of control.
